From ChEMBL document CHEMBL1126329, “Azasugar and glycal inhibitors of -L-fucosidase” (Bioorg Med Chem Lett, 1992) come the findings set out here.

Bounds are passed on as bounds.

One experiment concerns the target T1, Tissue alpha-L-fucosidase (Homo sapiens, UniProt P04066).
T1 sequence (P04066 whole entry): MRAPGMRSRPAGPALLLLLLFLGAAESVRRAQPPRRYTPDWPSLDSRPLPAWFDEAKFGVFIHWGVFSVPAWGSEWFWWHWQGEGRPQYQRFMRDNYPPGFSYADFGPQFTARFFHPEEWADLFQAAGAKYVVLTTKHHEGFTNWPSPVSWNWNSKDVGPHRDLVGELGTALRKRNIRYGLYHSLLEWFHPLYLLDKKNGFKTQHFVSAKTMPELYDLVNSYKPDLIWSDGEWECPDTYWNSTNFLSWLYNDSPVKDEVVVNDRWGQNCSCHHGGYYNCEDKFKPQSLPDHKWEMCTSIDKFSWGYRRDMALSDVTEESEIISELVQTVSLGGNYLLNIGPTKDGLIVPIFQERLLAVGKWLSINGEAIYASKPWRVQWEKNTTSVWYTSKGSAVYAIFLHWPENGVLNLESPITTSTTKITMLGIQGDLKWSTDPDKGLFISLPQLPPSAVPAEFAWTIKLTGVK
In words: Inhibition constant against Alpha-Fucosidase.
Take `CC1=COC(c2ccccc2)C(C)C1O` (stereo in doubt; 26): the inhibition constant Ki is > 100 mM. Regarding `C[C@@H]1OC=C[C@@H](O)[C@@H]1O`, affinity was put at a Ki of 0.05 mM. This counts as double-digit micromolar. On the same count and under the same terms, to `CC1=COC(c2ccccc2)C(C)C1O` (stereo in doubt; 21) belongs > 100 mM; to `OC1C=COC(c2ccccc2)C1` (configuration not stated), > 100 mM. The same measure, in the same setting: the value for `C[C@@H]1N[C@@H](CO)[C@H](O)[C@@H]1O` was 0.004 mM.

The compound `CC(=O)C1C(O)C=COC1C` (configuration not stated) returned a Ki of 0.09 mM. Still for that read-out and setting: the value for `CN1CC(O)C(O)C(O)C1CO` (configuration not stated) was 5.3 mM; that for `CC(=O)C1C(O)C=COC1c1ccccc1` (configuration not stated) was > 100 mM. `OC1C=COC(c2ccccc2)C1OCc1ccccc1` (configuration not stated): the Ki is > 100 mM. Still for that read-out and setting: the value for `OCC1NC(CO)C(O)C1O` (configuration not stated) was 0.91 mM.

Another experiment addresses T1, Tissue alpha-L-fucosidase. In words: Inhibition constant against Alpha-Fucosidase; Uncompetitive inhibition.
`C[C@H]1OC=C[C@@H](O)[C@H]1O` (stereo in doubt; 24) had a Ki of 23 mM. As for `C[C@H]1OC=C[C@@H](O)[C@H]1O` (stereo in doubt; 19), the Ki was 35 mM. Still for that read-out and setting: to `CC(=O)C1C(O)C=COC1C` (configuration not stated) belongs 26 mM. The same measure, in the same setting: to `OC1C=COC(c2ccccc2)C1O` (stereo in doubt; 23) belongs 83 mM. `OC1C=COC(c2ccccc2)C1O` (stereo in doubt; 25) yielded a Ki of 22 mM.

The target in the next experiment is T2, Tissue alpha-L-fucosidase (Homo sapiens) (UniProt P04066).
T2 sequence (whole entry): T1 sequence (P04066 whole entry)
Description: Slope inhibition constant against Alpha-Fucosidase; Uncompetitive inhibition
`Oc1ccccc1` had a Kis of 0.18 mM.

For another experiment, the target named is T2, Tissue alpha-L-fucosidase (Homo sapiens). The source holds these as a separate data set.
Description: Intecept inhibition constant against Alpha-Fucosidase; Noncompetitive inhibition
Compound `Oc1ccccc1` returned a Kii of 112 mM.
